Experimental data taken from patent publication US20250000971A1, “TLR4 AGONIST FOR MODULATING IMMUNE RESPONSE” (The Children's Medical Center Corporation, priority 2021, published 2025).
“Also recorded” adds a separate entry of the source.

How the values were obtained:
[1] = system: human elderly peripheral blood mononuclear cells (PBMCs); assay: Enriched elderly screen: TNF-inducing activity in human elderly PBMCs (384-well); assay type: cell-based; conditions: screen of 310 molecules, PBMCs of 4 elderly donors, 10% autologous plasma
Description: FIG. 1A: A graphical overview depicting screen approach. From a high throughput screen previously conducted, 310 molecules were identified to be activators of either THP-1 cells (monocyte cell line) or primary human adult peripheral blood mononuclear cells (PBMCs). These 310 molecules were assembled into a stimulation plate and then applied to the PBMCs of 4 elderly donors (cultured with 10% autologous plasma). […] Z scores were averaged across all 4 elderly donors. The Z score and chemical structure for PVP-180 are indicated.
In a previous high throughput screen (HTS), a number of hit molecules were identified as potentially being able to activate human immune cells. From 200,000 molecules screened, 177 had activity with NF-KB/IRF-inducing and leukocyte adherence/inducing activity. A separate small screen (9,000 molecules of the 200,000) was also conducted and 133 separate molecules had TNF-inducing activity in adult human peripheral blood mononuclear cells (PBMCs). These molecules originated from various bioactive and commercial libraries such as ChemDiv, ChemBridge, and Asinex. All libraries were owned and provided by the Institute of Chemistry and Cell Biology (ICCB)-Longwood (Harvard Medical School). […]

[2] = system: human adult and elderly PBMCs; assay: TNF production in human adult and elderly PBMCs, 96-well format, 24 h stimulation; assay type: cell-based
[3] = system: human adult and elderly PBMCs; assay: Cytokine responses of PBMC supernatants by 14-multiplex assay; assay type: cell-based
[4] = system: wild type murine bone marrow derived dendritic cells (BMDCs); assay: TNF and IL-6 production by wild type murine bone marrow derived dendritic cells; assay type: cell-based; conditions: N=4
[5] = target: T1, human TLR4 (Homo sapiens, UniProt O00206+Q9Y6Y9); assay: PRR-transfected HEK reporter cell lines, TLR4; assay type: cell-based; conditions: HEK reporter cell line, screened at 33 μM
T1 construct: expressed in transfected cells; host or cells: HEK reporter cell line
Experimental: (§1) FIGS. 3A-3B. PVP-180 is a novel small molecule TLR4 agonist. FIG. 3A: PVP-180 was screened at 33 μM using pattern recognition receptor (PRR)-transfected HEK reporter cell lines. Cell line responses are also indicated to PRR-specific positive controls as well as a negative control. […] Further assays confirm that PVP-180 chemical stock is free of detectable endotoxin. FIG. 3B: PVP-180 was tested with THP-1 reporter cells as well as THP-1 cells with MyD88, TBK1, or IRF3 knockout. […] Results are reported as a percentage of TNF activity.

[6] = system: pattern recognition receptors (PRR) other than TLR4; assay: PRR-transfected HEK reporter cell lines, other PRRs; assay type: cell-based; conditions: screened at 33 μM
Experimental: as §1

[7] = system: NF-KB; assay: THP-1 reporter cells and THP-1 cells with MyD88, TBK1 or IRF3 knockout; assay type: cell-based; conditions: THP-1 reporter cells versus knockout strains
Experimental: as §1

[8] = system: Balb/c murine model of SARS-COV-2 immunization; assay: Balb/c murine model of SARS-COV-2 immunization with rSpike with or without adjuvant; assay type: in vivo, mice; conditions: for rSpike immunogenicity: adult (12 weeks) and aged mice (52 weeks), booster on Day 14

T1 sequence (O00206 24-839): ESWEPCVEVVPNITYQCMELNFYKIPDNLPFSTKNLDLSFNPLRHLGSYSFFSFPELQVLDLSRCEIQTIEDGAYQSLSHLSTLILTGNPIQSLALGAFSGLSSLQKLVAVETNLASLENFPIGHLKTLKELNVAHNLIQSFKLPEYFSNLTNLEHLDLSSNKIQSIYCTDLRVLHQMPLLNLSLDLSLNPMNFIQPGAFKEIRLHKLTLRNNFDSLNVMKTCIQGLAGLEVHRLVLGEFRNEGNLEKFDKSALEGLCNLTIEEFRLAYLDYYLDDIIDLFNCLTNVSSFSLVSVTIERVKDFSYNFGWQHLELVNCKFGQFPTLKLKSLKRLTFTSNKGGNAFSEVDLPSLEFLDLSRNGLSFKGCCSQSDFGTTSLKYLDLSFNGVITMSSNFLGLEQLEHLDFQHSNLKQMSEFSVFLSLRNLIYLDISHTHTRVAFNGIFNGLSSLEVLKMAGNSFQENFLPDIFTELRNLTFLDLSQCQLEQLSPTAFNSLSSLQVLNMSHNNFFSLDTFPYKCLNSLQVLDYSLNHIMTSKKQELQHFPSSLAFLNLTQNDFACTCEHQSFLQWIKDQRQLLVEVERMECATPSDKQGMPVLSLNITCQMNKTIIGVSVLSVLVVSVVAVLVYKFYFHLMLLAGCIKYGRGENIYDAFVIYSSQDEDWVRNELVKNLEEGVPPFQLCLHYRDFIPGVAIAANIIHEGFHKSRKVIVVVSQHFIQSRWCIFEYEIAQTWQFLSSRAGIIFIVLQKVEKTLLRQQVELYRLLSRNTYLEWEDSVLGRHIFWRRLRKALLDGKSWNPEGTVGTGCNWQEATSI
T1 sequence (Q9Y6Y9 19-160): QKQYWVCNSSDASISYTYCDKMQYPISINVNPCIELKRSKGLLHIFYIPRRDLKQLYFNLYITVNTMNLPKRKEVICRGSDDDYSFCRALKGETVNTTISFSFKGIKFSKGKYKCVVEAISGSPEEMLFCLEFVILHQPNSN

In the case of `CC1CCc2cc(F)ccc2N1C(=O)c1ccc(N2CC3CC(C2)c2cccc(=O)n2C3)c(NC(=O)c2cccnc2)c1` (centres unmarked) [PVP-180], the “TNF-inducing activity toward elderly PBMCs” value [1] is reported as “robust activity”, the “TNF response as fold-change over the positive control (R848)” value ([2]; at 3 μM and above) is reported as “more adult-like TNF response” and the “production of TNF” value ([2]; elderly and adult PBMCs, stimulated for 24 hours, N=4) is reported as “titration-dependent production of TNF”. The “innate immune response (cytokines), elder versus younger adult leucocytes” value ([3]; 14-multiplex assay) was “greater innate immune response in elder leucocytes than in younger adult controls”, the “production of multiple cytokines including TNF, IFNγ and IL-10” value ([3]; both populations (adult and elderly PBMCs), PVP-180 at 25 μM, N=4 donors) was “induced the production of multiple cytokines” and the “cytokine (TNF, IL-6, IL-10, IL-12, GM-CSF, IFN-γ, IL1-β, IP-10) and/or chemokine (CCL2, CCL5, CXCL8) production” value ([3]; human PBMC in vitro, compound alone) was “sufficient to induce cytokine”. For the same molecule, the “induction of IL-6 production” value [4] was “concentration-dependent induction”, the “induction of TNF production” value [4] was “concentration-dependent induction” and the “activity toward TLR4” value [5] was “strong activity; also recorded: significant activity”. The “activity toward the other PRRs tested” value [6] was “not the other PRRs tested”, the “dependence of mechanism on MyD88, TBK1, IRF3” value [7] was “dependent upon MyD88, TBK1, and IRF3” and the rSpike immunogenicity [8] was “enhanced rSpike immunogenicity”. The rSpike immunogenicity ([8]; listed as compound of Formula (I)) was “enhanced antigen-specific immune response”, the “adjuvant activity in adult mice” value ([8]; adult mice, overall IgG at Day 28) was “adjuvant activity in immunized adult mice. though with a less pronounced effect than in aged mice” and the “anti-rSpike IgG2 antibodies” value ([8]; aged mice) was “increase”. The “antibody titers versus rSpike alone” value ([8]; aged mice, overall IgG at Day 28) was “substantially higher antibody titers” and the “anti-rSpike IgG1 subtype antibodies” value ([8]; both adult and aged mice) was “primarily enhanced the production”.
